Measured values taken from ChEMBL document CHEMBL1641581, “Ring A-seco triterpenoids with antibacterial activity from Dysoxylum hainanense” (2011).
Values after ≈ are worked out from the molar mass of the structure shown. Blank lines part the entries; values can stand above or below the molecule they belong to.

How the values were obtained:
Type in all cases: functional
Micrococcus luteus = assay: Antibacterial activity against Micrococcus luteus ATCC 9341 assessed as inhibition of visible growth
Shigella flexneri = assay: Antibacterial activity against Shigella flexneri ATCC 12022 assessed as inhibition of visible growth
Staphylococcus aureus = assay: Antibacterial activity against Staphylococcus aureus ATCC 25923 assessed as inhibition of visible growth
[1] = tested on: Staphylococcus epidermidis; assay: Antibacterial activity against Staphylococcus epidermidis ATCC 12228 assessed as inhibition of visible growth
Escherichia coli = assay: Antibacterial activity against Escherichia coli ATCC 25922 assessed as inhibition of visible growth
Bacillus subtilis = assay: Antibacterial activity against Bacillus subtilis ATCC 6633 assessed as inhibition of visible growth
Pseudomonas aeruginosa = assay: Antibacterial activity against Pseudomonas aeruginosa ATCC 14502 assessed as inhibition of visible growth
Trichophyton rubrum = assay: Antifungal activity against Trichophyton rubrum ATCC 10218 assessed as inhibition of visible growth
Nannizzia gypsea = assay: Antifungal activity against Microsporum gypseum ATCC 14683 assessed as inhibition of visible growth
Candida albicans = assay: Antifungal activity against Candida albicans ATCC 1600 assessed as inhibition of visible growth
Saccharomyces = assay: Antifungal activity against Saccharomyces sake ATCC 26421 assessed as inhibition of visible growth

Structure (SMILES): CC1(C)CC[C@]2(C)CC[C@]3(C)C(=CC[C@@H]4[C@@](C)(CCC(=O)O)[C@H](C(C)(C)O)CC[C@]43C)[C@@H]2C1 [DYSOXYHAINIC ACID I]
MIC (Micrococcus luteus): > 50 µg/mL | MIC (Trichophyton rubrum): > 50 µg/mL | MIC (Shigella flexneri): > 50 µg/mL | MIC (Staphylococcus aureus): > 50 µg/mL | MIC (Nannizzia gypsea): > 50 µg/mL | MIC [1]: 12.5 µg/mL (≈ 27.2 µM) | MIC (Escherichia coli): > 50 µg/mL | MIC (Bacillus subtilis): 1.56 µg/mL (≈ 3.4 µM) | MIC (Pseudomonas aeruginosa): > 50 µg/mL | MIC (Candida albicans): > 50 µg/mL | MIC (Saccharomyces): > 50 µg/mL

Structure (SMILES): C=C(C)[C@@H]1CC[C@]2(C)[C@H](CC[C@@H]3[C@H]4[C@H](C(C)(C)O)CC[C@]4(C)CC[C@]32C)[C@@]1(C)CCC(=O)O [DYSOXYHAINIC ACID H]
MIC (Micrococcus luteus): 3.12 µg/mL (≈ 6.8 µM) | MIC (Trichophyton rubrum): > 50 µg/mL | MIC (Shigella flexneri): > 50 µg/mL | MIC (Staphylococcus aureus): > 50 µg/mL | MIC (Nannizzia gypsea): > 50 µg/mL | MIC [1]: > 50 µg/mL | MIC (Escherichia coli): > 50 µg/mL | MIC (Bacillus subtilis): 3.12 µg/mL (≈ 6.8 µM) | MIC (Pseudomonas aeruginosa): > 50 µg/mL | MIC (Candida albicans): > 50 µg/mL | MIC (Saccharomyces): > 50 µg/mL

Structure (SMILES): C=C(C)[C@@H]1CC[C@]2(C)[C@H](CC=C3[C@@H]4C[C@@](C)(C(=O)O)CC[C@]4(C)CC[C@]32C)[C@@]1(C)CCC(=O)OC [DYSOXYHAINIC ACID G]
MIC (Micrococcus luteus): 3.12 µg/mL (≈ 6.44 µM) | MIC (Trichophyton rubrum): > 50 µg/mL | MIC (Shigella flexneri): > 50 µg/mL | MIC (Staphylococcus aureus): > 50 µg/mL | MIC (Nannizzia gypsea): > 50 µg/mL | MIC [1]: 3.12 µg/mL (≈ 6.44 µM) | MIC (Escherichia coli): > 50 µg/mL | MIC (Bacillus subtilis): 3.12 µg/mL (≈ 6.44 µM) | MIC (Pseudomonas aeruginosa): > 50 µg/mL | MIC (Candida albicans): > 50 µg/mL | MIC (Saccharomyces): > 50 µg/mL

Structure (SMILES): CC(C)(C(=O)O)[C@@H]1CC[C@]2(C)[C@H](CC=C3[C@@H]4C[C@@](C)(C(=O)O)CC[C@]4(C)CC[C@]32C)[C@@]1(C)C(=O)O [DYSOXYHAINIC ACID F]
MIC (Micrococcus luteus): > 50 µg/mL | MIC (Trichophyton rubrum): > 50 µg/mL | MIC (Shigella flexneri): > 50 µg/mL | MIC (Staphylococcus aureus): > 50 µg/mL | MIC (Nannizzia gypsea): > 50 µg/mL | MIC [1]: > 50 µg/mL | MIC (Escherichia coli): > 50 µg/mL | MIC (Bacillus subtilis): > 50 µg/mL | MIC (Pseudomonas aeruginosa): > 50 µg/mL | MIC (Candida albicans): > 50 µg/mL | MIC (Saccharomyces): > 50 µg/mL

Structure (SMILES): CC1(C)CC[C@]2(C)CC[C@]3(C)C(=CC=C4[C@@](C)(CCC(=O)O)[C@H](C(C)(C)O)CC[C@]43C)[C@@H]2C1 [DYSOXYHAINIC ACID J]
MIC (Micrococcus luteus): > 50 µg/mL | MIC (Trichophyton rubrum): > 50 µg/mL | MIC (Shigella flexneri): > 50 µg/mL | MIC (Staphylococcus aureus): > 50 µg/mL | MIC (Nannizzia gypsea): > 50 µg/mL | MIC [1]: > 50 µg/mL | MIC (Escherichia coli): > 50 µg/mL | MIC (Bacillus subtilis): > 50 µg/mL | MIC (Pseudomonas aeruginosa): > 50 µg/mL | MIC (Candida albicans): > 50 µg/mL | MIC (Saccharomyces): > 50 µg/mL

Structure (SMILES): C=C(C)[C@@H]1CC[C@]2(C)[C@H](CC=C3[C@@H]4C[C@@](C)(C(=O)O)CC[C@]4(C)CC[C@]32C)[C@@]1(C)CCC(=O)O [KOETJAPIC ACID]
MIC (Micrococcus luteus): > 50 µg/mL | MIC (Trichophyton rubrum): > 50 µg/mL | MIC (Shigella flexneri): > 50 µg/mL | MIC (Staphylococcus aureus): > 50 µg/mL | MIC (Nannizzia gypsea): > 50 µg/mL | MIC [1]: 12.5 µg/mL (≈ 26.6 µM) | MIC (Escherichia coli): > 50 µg/mL | MIC (Bacillus subtilis): 6.25 µg/mL (≈ 13.3 µM) | MIC (Pseudomonas aeruginosa): > 50 µg/mL | MIC (Candida albicans): > 50 µg/mL | MIC (Saccharomyces): > 50 µg/mL

Now from value to molecule:

MIC (Micrococcus luteus): 12.5 µg/mL (≈ 46.9 µM) | MIC (Shigella flexneri): > 50 µg/mL | MIC (Staphylococcus aureus): 25 µg/mL (≈ 93.9 µM) | MIC [1]: 12.5 µg/mL (≈ 46.9 µM) | MIC (Escherichia coli): > 50 µg/mL | MIC (Bacillus subtilis): 12.5 µg/mL (≈ 46.9 µM) | MIC (Pseudomonas aeruginosa): > 50 µg/mL
Structure (SMILES): C=CCc1ccc(O)c(-c2cc(CC=C)ccc2O)c1 [MAGNOLOL]

MIC (Trichophyton rubrum): 25 µg/mL (≈ 57.8 µM) | MIC (Nannizzia gypsea): 12.5 µg/mL (≈ 28.9 µM) | MIC (Candida albicans): 6.25 µg/mL (≈ 14.5 µM) | MIC (Saccharomyces): 12.5 µg/mL (≈ 28.9 µM)
Structure (SMILES): COC(=O)C1=CC[C@@]23CC[C@@H]([C@@](C)(/C=C/C=C(\C)C(=O)O)OC2=O)[C@@]3(OC(C)=O)CC1 [PSEUDOLARIC ACID B]
